Results: patent US5677146A, “Human amyloid protein precursor homolog and kunitz-type inhibitor” (Zymogenetics, Inc., priority 1995, dated 1997)

Key:
Cathepsin G = molecular target: T1, Cathepsin G (Homo sapiens, UniProt P08311); test: Protease inhibitory activity assay, cathepsin G; type: biochemical; conditions: 1 μM inhibitor; Suc-Ala-Ala-Pro-Phe-pNA 0.6 mM; 25° C.
T1 construct: purified at Novo Nordisk A/S; tissue Novo Nordisk A/S (purified there); host or cells: leukocytes (by the cited method)
T1 sequence (P08311 21-255): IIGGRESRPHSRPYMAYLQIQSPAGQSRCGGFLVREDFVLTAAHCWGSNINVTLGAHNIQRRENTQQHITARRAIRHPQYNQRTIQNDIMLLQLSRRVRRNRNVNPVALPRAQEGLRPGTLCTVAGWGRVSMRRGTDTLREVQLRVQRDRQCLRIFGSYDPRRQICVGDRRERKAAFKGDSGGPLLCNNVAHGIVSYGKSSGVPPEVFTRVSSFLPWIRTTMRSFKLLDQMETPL
Procedure: Cathepsin G Suc--Ala--Ala--Pro--Phe--pNA
(§1) purified at Novo Nordisk A/S
(0.6 mM) (SEQ ID NO: 19)
(§2) Inhibition assays were performed in microtiter wells in a total volume of 300 μl in 10 mM NaCl, 50 mM Tris-HCl (pH 7.4), 0.01% TWEEN80 (Polyoxyethylenesorbitan monoleate). The reactions were incubated at 25° C. for ten minutes after which the appropriate chromogenic substrate was added to the final concentration listed in Table 2 and the final reaction was incubated for thirty minutes at 25° C. Amidolytic activity was measured at 405 nm or by fluorescence Em at 460 nm.

Chymotrypsin = test: Protease inhibitory activity assay, chymotrypsin; type: biochemical; conditions: 1 μM inhibitor; chymotrypsin 2.5 nM; MeO-Suc-Arg-Pro-Tyr-pNA 0.6 mM; 25° C.
Procedure: MeO--Suc--Arg--Pro--Tyr--pNA
as §2

Trypsin = test: Protease inhibitory activity assay, trypsin; type: biochemical; conditions: 1 μM inhibitor; trypsin 8 nM; H-D-Val-Leu-Lys-pNA 0.6 mM; 25° C.
Procedure: Trypsin (8 nM) H--D--Val--Leu--Lys--pNA
as §2

Urokinase = molecular target: T2, Urokinase (Homo sapiens, UniProt P00749); test: Protease inhibitory activity assay, urokinase; type: biochemical; conditions: 1 μM inhibitor; urokinase 5 nM; <Glu-Gly-Arg-pNA 0.6 mM; 25° C.
T2 construct: purchased Serono, Freigung, Germany
Procedure: as §2

Plasmin = molecular target: T3, Plasmin (Homo sapiens, UniProt P00747); test: Protease inhibitory activity assay, plasmin; type: biochemical; conditions: 1 μM inhibitor; plasmin 10 nM; H-D-Val-Leu-Lys-pNA 0.6 mM; 25° C.
T3 construct: Plasmin (10 nM); purchased Kabi
Procedure: H--D--Val--Leu--Lys--pNA
as §2

[1] = test system: GL Kallikrein (glandular kallikrein); test: Protease inhibitory activity assay, glandular kallikrein; type: biochemical; conditions: 1 μM inhibitor; GL kallikrein 1 U/ml; H-D-Val-Leu-Arg-pNA 0.6 mM; 25° C.
Procedure: H--D--Val--Leu--Arg--pNA
(§3) Abbreviations in Table 2: rec. refers to recombinant, GL kallikrein refer
(§4) to glandular kallikrein, and PL kallikrein refers to plasma kallikrein.
as §2

Leukocyte Elastase = molecular target: T4, Leukocyte Elastase (Homo sapiens, UniProt P08246); test: Protease inhibitory activity assay, leukocyte elastase; type: biochemical; conditions: 1 μM inhibitor; MeO-Suc-Ala-Ala-Pro-Val-pNA 0.6 mM; 25° C.
T4 construct: purified at Novo Nordisk A/S; tissue Novo Nordisk A/S (purified there); host or cells: leukocytes
T4 sequence (P08246 30-267): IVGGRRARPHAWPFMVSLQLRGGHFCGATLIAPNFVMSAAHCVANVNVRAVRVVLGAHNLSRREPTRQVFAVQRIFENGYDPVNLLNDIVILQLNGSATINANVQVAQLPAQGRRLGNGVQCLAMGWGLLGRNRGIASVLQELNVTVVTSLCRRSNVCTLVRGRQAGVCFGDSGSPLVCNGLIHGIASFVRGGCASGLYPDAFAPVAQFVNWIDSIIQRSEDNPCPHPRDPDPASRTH
Procedure: MeO--Suc--Ala--Ala--Pro--Val--pNA
as §1, §2

[2] = molecular target: T5, PL Kallikrein (plasma kallikrein) (Homo sapiens, UniProt P03952); test: Protease inhibitory activity assay, plasma kallikrein; type: biochemical; conditions: 1 μM inhibitor; PL kallikrein 3 nM; H-D-Pro-Phe-Arg-pNA 0.6 mM; 25° C.
T5 construct: purchased Kabi
Procedure: (§5) H--D--Pro--Phe--Arg--pNA
as §3, §4, §2

granulocyte elastase = molecular target: T6, granulocyte elastase (Homo sapiens, UniProt P08246); conditions: cited from earlier work
T6 sequence (P08246 30-267): T4 sequence (P08246 30-267)

collagenase = conditions: Wenzel and Tschesche 1981; cited from earlier work
plasma kallikrein = plasma kallikrein (Homo sapiens, UniProt P03952); conditions: WO 89/10374; cited from earlier work
kidneys = conditions: in vivo, repeated injections of relatively high doses; rats, rabbits and dogs; cited from earlier work
human Factor Xa = molecular target: T7, human Factor Xa (Homo sapiens, UniProt P00742); test: Protease inhibitory activity assay, Factor Xa; type: biochemical; conditions: 1 μM inhibitor; Factor Xa 3 nM; MeO-CO-CHA-Gly-Arg-pNA 0.3 mM; 25° C.
T7 construct: human Factor Xa (3 nM); purchased Dr. I. Schousboe, Copenhagen, Denmark
Procedure: The reactions were incubated at 25° C. for ten minutes after which the appropriate chromogenic substrate was added to the final concentration listed in Table 2 and the final reaction was incubated for thirty minutes at 25° C. Amidolytic activity was measured at 405 nm or by fluorescence Em at 460 nm.

[3] = high doses; cardiac surgery including cardiopulmonary bypass operations; cited from earlier work
human Factor XIa = molecular target: T8, human Factor XIa (Homo sapiens, UniProt P03951); test: Protease inhibitory activity assay, Factor XIa; type: biochemical; conditions: 1 μM inhibitor; Factor XIa 1 nM; Boc-Glu(OBzl)-Ala-Arg-MCA 0.12 mM; 25° C.
T8 construct: human Factor XIa (1 nM); purchased Dr. Kazuo Fujikawa, University of Washington, Seattle, WA
Procedure: Boc--Glu(OBzl)--Ala--Arg--MCA
as §2

[4] = molecular target: T9, rec. Protein Ca (activated protein C) (Homo sapiens, UniProt P04070); test: Protease inhibitory activity assay, activated protein C; type: biochemical; conditions: 1 μM inhibitor; rec. Protein Ca 5 nM; <Glu-Pro-Arg-pNA 0.6 mM; 25° C.
T9 construct: purchased Novo Nordisk A/S
Procedure: as §2
r.h. refers to recombinant human, h. refers to human, protein Ca refers t
activated protein C; APPH refers to the KunitzType inhibitor domain of […]

rec. human Factor VIIa = molecular target: T10, rec. human Factor VIIa (Homo sapiens, UniProt P08709); test: Protease inhibitory activity assay, Factor VIIa; type: biochemical; conditions: 1 μM inhibitor; Factor VIIa 300 nM; H-D-Ile-Pro-Arg-pNA 0.6 mM; 25° C.
T10 construct: rec. human Factor VIIa; purchased Novo Nordisk A/S
T10 sequence (P08709 61-212 limits assumed): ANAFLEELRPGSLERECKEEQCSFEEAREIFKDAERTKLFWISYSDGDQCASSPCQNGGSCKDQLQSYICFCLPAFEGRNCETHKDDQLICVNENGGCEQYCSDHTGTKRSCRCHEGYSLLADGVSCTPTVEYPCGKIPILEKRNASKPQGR
T10 sequence (P08709 213-466 limits assumed): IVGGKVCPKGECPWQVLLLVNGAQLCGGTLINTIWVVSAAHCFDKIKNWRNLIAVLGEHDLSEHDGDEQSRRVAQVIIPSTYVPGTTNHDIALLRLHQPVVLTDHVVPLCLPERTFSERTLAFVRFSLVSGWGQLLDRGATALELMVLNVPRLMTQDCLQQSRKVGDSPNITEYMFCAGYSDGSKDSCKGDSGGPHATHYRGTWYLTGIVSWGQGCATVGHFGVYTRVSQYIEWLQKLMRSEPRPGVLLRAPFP
Procedure: H--D--Ile--Pro--Arg--pNA
as §2

human Factor XIIa = molecular target: T11, human Factor XIIa (Homo sapiens, UniProt P00748); test: Protease inhibitory activity assay, Factor XIIa; type: biochemical; conditions: 1 μM inhibitor; Factor XIIa 30 nM; H-D-Pro-Phe-Arg-pNA 0.6 mM; 25° C.
T11 construct: human Factor XIIa (30 nM); purchased Dr. Walt Kisiel, University of New Mexico, Albuquerque, NM
T11 sequence (P00748 20-372 limits assumed): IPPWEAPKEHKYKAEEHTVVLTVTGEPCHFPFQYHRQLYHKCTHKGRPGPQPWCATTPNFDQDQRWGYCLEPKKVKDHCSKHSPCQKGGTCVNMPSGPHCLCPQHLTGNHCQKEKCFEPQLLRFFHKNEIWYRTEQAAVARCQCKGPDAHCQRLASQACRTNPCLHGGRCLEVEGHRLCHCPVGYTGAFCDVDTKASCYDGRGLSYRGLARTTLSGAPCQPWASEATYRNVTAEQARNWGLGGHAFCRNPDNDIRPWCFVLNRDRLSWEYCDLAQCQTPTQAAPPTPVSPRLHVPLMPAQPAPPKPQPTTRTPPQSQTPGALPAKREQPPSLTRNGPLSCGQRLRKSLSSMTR
T11 sequence (P00748 373-615 limits assumed): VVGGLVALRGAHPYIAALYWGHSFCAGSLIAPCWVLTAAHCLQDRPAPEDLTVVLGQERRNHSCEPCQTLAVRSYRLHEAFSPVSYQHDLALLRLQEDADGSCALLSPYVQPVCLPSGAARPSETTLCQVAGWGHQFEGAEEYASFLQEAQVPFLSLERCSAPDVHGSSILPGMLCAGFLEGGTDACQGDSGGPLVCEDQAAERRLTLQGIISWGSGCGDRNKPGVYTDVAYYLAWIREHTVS
Procedure: human Factor XIIa (30 nM)
as §5, §2

T5 sequence (P03952 20-390 limits assumed): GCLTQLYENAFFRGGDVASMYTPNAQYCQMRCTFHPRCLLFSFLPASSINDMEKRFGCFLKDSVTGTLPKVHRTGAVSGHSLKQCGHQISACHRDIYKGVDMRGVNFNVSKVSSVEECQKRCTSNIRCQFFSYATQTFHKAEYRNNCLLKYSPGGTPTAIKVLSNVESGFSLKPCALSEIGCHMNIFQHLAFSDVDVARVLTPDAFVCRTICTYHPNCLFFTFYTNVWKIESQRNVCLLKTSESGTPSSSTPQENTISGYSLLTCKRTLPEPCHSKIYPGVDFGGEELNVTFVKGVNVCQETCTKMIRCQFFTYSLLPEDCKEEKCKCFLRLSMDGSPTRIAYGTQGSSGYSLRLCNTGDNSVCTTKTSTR
T5 sequence (P03952 391-638 limits assumed): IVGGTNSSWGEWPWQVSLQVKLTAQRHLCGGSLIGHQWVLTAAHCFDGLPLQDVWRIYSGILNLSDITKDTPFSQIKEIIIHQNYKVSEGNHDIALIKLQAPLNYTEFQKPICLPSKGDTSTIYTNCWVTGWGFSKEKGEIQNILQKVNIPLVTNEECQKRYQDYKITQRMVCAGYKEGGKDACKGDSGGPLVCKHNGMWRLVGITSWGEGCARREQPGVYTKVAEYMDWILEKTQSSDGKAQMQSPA
T3 sequence (P00747 97-580 limits assumed): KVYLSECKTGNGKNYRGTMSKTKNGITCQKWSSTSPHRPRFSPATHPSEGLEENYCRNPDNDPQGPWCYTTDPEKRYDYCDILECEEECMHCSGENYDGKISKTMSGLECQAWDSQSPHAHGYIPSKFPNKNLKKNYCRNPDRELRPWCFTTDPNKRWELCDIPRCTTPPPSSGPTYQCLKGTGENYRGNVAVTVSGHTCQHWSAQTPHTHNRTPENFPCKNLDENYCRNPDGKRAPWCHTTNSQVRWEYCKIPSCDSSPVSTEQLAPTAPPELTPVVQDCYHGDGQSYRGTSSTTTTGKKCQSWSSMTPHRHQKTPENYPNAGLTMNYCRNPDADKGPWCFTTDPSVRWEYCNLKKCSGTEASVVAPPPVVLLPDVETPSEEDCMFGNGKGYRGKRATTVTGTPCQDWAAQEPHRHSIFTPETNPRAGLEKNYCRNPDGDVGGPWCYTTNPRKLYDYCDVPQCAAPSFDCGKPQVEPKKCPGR
T3 sequence (P00747 581-810 limits assumed): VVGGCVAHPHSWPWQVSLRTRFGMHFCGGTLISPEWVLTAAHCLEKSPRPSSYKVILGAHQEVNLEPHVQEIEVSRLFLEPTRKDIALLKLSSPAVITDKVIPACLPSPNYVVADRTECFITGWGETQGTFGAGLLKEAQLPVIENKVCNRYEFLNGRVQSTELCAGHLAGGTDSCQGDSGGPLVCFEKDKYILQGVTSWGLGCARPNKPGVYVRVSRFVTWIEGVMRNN
T9 sequence (P04070 43-197 limits assumed): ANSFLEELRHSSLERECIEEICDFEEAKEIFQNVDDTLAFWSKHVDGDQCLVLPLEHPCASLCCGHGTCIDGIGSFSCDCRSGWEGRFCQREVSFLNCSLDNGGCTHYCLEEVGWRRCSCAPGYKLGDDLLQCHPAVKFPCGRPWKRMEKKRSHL
T9 sequence (P04070 212-461 limits assumed): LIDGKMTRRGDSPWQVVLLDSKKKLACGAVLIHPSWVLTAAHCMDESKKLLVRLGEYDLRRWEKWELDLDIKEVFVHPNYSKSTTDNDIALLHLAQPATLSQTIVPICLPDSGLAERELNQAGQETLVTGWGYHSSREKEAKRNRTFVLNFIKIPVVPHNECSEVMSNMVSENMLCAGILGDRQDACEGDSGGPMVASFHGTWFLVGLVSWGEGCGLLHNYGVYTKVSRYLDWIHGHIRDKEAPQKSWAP
T8 sequence (P03951 19-387 limits assumed): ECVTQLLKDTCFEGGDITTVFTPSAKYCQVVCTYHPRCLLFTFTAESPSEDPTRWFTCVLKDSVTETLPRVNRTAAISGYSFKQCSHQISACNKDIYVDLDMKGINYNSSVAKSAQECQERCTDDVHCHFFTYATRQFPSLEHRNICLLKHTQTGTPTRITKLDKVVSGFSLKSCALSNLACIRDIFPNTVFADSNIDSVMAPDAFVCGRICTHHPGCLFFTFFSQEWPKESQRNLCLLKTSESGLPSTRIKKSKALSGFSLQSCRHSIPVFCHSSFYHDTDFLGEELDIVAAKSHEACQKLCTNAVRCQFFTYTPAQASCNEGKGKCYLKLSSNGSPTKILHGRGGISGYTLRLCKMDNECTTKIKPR
T8 sequence (P03951 388-625 limits assumed): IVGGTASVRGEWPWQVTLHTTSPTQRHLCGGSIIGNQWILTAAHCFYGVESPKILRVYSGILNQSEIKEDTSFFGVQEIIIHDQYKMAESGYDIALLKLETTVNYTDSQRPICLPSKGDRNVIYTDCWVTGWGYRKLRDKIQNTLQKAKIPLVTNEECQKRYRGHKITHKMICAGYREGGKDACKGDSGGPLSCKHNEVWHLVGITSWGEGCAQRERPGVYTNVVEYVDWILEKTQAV
Chain of plasma kallikrein (P03952 20-638, species assumed): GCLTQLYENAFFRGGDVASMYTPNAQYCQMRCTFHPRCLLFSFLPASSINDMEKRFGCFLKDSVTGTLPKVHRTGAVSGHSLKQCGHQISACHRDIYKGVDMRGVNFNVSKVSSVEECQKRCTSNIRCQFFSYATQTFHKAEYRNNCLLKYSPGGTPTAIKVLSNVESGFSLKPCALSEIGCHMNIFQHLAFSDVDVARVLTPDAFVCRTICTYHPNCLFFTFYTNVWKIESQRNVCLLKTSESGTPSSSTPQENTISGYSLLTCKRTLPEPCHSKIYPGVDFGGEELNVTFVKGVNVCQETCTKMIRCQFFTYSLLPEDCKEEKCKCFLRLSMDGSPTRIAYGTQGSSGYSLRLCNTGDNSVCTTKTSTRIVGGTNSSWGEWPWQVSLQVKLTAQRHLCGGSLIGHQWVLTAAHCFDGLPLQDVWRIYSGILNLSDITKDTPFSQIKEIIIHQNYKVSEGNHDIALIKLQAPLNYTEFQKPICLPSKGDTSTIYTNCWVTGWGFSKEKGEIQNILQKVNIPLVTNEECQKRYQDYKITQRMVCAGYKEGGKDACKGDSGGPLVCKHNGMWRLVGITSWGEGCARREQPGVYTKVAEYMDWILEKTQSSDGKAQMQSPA
T7 sequence (P00742 41-179 limits assumed): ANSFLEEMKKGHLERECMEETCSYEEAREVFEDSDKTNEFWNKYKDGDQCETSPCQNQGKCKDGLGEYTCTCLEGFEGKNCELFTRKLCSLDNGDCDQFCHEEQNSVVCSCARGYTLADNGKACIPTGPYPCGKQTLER
T7 sequence (P00742 235-488 limits assumed): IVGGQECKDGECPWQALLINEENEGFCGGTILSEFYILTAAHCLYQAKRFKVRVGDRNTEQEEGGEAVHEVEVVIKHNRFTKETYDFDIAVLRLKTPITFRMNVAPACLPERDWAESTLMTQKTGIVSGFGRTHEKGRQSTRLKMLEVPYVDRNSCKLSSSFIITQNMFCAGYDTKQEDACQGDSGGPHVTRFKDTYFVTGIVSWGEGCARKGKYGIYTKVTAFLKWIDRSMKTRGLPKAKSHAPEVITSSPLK

APP: amyloid protein precursor Kunitz-type inhibitor domain (Example 2E, SEQ ID NO:17), expressed in yeast (EVCSEQAETGPCRAMISRWYFDVTEGKCAPFFYGGCGGNRNNFDTEEYCMAVCGSA)
% Inhibition, Cathepsin G (Cathepsin G): 16%
% Inhibition, Chymotrypsin (Chymotrypsin): 94%
% Inhibition, Trypsin (Trypsin): 99.7%
% Inhibition, Urokinase (Urokinase): 0%
% Inhibition, Plasmin (Plasmin): 90%
% Inhibition, GI Kallikrein [1]: 82%
% Inhibition, Leukocyte Elastase (Leukocyte Elastase): 6%
% Inhibition, PL Kallikrein [2]: 71%

Aprotinin (1-58, Ala15)
effect on elastase (granulocyte elastase; literature): weak effect

aprotinin (1-58, Val15)
inhibitory effect on collagenase (collagenase): inhibitory effect
selectivity for granulocyte elastase (granulocyte elastase; Wenzel and Tschesche 1981): relatively high selectivity

aprotinin (3-58, Arg15, Ala17, Ser42)
plasma kallikrein inhibitory effect (plasma kallikrein): excellent

aprotinin [BPTI]
% Inhibition, Cathepsin G (Cathepsin G): 4%
nephrotoxic effect (kidneys): nephrotoxic effect
% Inhibition, Trypsin (Trypsin): 100%
% Inhibition, Urokinase (Urokinase): 1%
% Inhibition, Plasmin (Plasmin): 100%
% Inhibition, h. Factor Xa (human Factor Xa): 1%
blood loss in connection with cardiac surgery [3]: significantly reduces blood loss
% Inhibition, h. Factor XIa (human Factor XIa): 59%
% Inhibition, r.h. Protein Ca [4]: 38%
% Inhibition, Leukocyte Elastase (Leukocyte Elastase): 1%
% Inhibition, PL Kallikrein [2]: 83%
% Inhibition, r.h. Factor VIIa (rec. human Factor VIIa): 1%
% Inhibition, h. Factor XIIa (human Factor XIIa): 2%
